From US4157399A, “Benzo(B)thiophenes” (Parcor, priority 1976, dated 1979)
Structures can show the parent of a compound that is named as a salt.

What was measured:
Format in all cases: in vivo
[1] = Propylthiouracil test, free and total cholesterol in the rat; details: 11th day; propylthiouracil-treated rats; oral 100 mg/Kg
Procedure: Experiments were carried out according to the propylthiouracil test (RANNEY & Coll., J. PHARMACOL. EXPER. THERAP. 1963, 142, 132-136). The propyl-thiouracil administered to adult rats has the property of making them hypercholesterolemic: the plasma level of cholesterol increases by approximately 15% under these conditions. Experiments are conducted on various batches of rats, the control batch receiving only propylthiouracil and the other treated batches also receiving the composition of the invention at an oral dose of 100 mg/Kg.
On the 11th day of experimentation blood samples are taken and the free cholesterol and total cholesterol is dosed.

[2] = tested on: aortic atheromatous lesions; assay: Rabbit autopsy, mark for aortic atheromatous lesions; details: mark of 0 to 4; end of test (75 days); 100 mg/Kg orally
Procedure: (§1) The animals divided into several batches of 15 animals are fed with feedstuff enriched in cholesterol (1%). Batch A serves as control and is not treated, the other batches also receive the derivatives to be tested at a dose of 100 mg/Kg, administered orally, suspended in aqueous solution of gum arabic at 5%. On the first day of experimentation and then every 15 days for 75 days biological examinations are conducted on all the animals, during which the various elements causing dyslipemia are dosed; total cholesterol (T), esterified cholesterol (E), free cholesterol (L), esterification ratio (E/T), Kunkel-Phenol test (K1), Kunkelphenol test (K2), Burstein dextrane test (B) and serum lipids (LS).
(§2) At the end of the test all the animals are killed and an autopsy is carried out; a macroscopic examination is then conducted on the livers and aortas and a mark of 0 to 3 is given to the amount of fatty infiltrations of the liver and 0 to 4 to the intensity of aortic atheromatous lesions.

[3] = Rabbit fed cholesterol-enriched (1%) feedstuff, dosage of elements causing dyslipemia; parameters: total cholesterol (T) / esterified cholesterol (E) / Kunkelphenol test (K2) / Burstein dextrane test (B) / serum lipids (LS): unit not given here; details: 100 mg/Kg orally
Procedure: as §1

[4] = tested on: fatty infiltrations of the liver; assay: Rabbit autopsy, mark for fatty infiltrations of the liver; details: mark of 0 to 3; end of test (75 days); 100 mg/Kg orally
Procedure: as §1, §2

SMILES | Free cholesterol [1] | Total cholesterol [1] | aortic atheromatons lesions [2] | Burstein dextrane test (B) ([3]; 1st day) | Kunkel-Phenol test (K1) ([3]; 1st day) | Kunkelphenol test (K2) ([3]; 1st day) | esterification ratio (E/T) ([3]; 1st day) | esterified cholesterol (E) ([3]; 1st day) | free cholesterol (L) ([3]; 1st day) | serum lipids (LS) ([3]; 1st day) | total cholesterol (T) ([3]; 1st day) | Burstein dextrane test (B) ([3]; 30th day) | Kunkel-Phenol test (K1) ([3]; 30th day) | Kunkelphenol test (K2) ([3]; 30th day) | esterification ratio (E/T) ([3]; 30th day) | esterified cholesterol (E) ([3]; 30th day) | free cholesterol (L) ([3]; 30th day) | serum lipids (LS) ([3]; 30th day) | total cholesterol (T) ([3]; 30th day) | Burstein dextrane test (B) ([3]; 75th day) | other results
CCN(CC)c1c(-c2ccc(Cl)cc2)sc2ccccc12 [derivative 37, Hydrochloride of 2-(4-chlorophenyl)-3-diethylamino-benzo(b)thiophene] | 0,13 g/l | 0,58 g/l | 1,3 | 10,5 | 8,2 | 12,9 | 0,47 | 0,27 | 0,30 | 2,00 | 0,57 | 21,3 | 18,8 | 25,1 | 0,62 | 0,97 | 0,58 | 2,85 | 1,55 | 35,7 | Kunkel-Phenol test (K1) ([3]; 75th day): 32,8; Kunkelphenol test (K2) ([3]; 75th day): 46,7; esterification ratio (E/T) ([3]; 75th day): 0,61; esterified cholesterol (E) ([3]; 75th day): 1,80; free cholesterol (L) ([3]; 75th day): 1,14; serum lipids (LS) ([3]; 75th day): 4,15; total cholesterol (T) ([3]; 75th day): 2,94; fatty infiltrations of the liver [4]: 1,00
c1ccc(CN(Cc2ccccc2)c2c(-c3ccccc3)sc3ccccc23)cc1 [derivative 19, 3-dibenzylamino-2-phenyl-benzo(b)thiophene] | 0,14 g/l | 0,58 g/l | 1,3 | 10,9 | 8,0 | 13,1 | 0,50 | 0,28 | 0,29 | 1,97 | 0,57 | 2,3 | 18,4 | 25,3 | 0,64 | 0,95 | 0,52 | 2,84 | 1,47 | 36,1 | Kunkel-Phenol test (K1) ([3]; 75th day): 33,5; Kunkelphenol test (K2) ([3]; 75th day): 46,5; esterification ratio (E/T) ([3]; 75th day): 0,61; esterified cholesterol (E) ([3]; 75th day): 1,79; free cholesterol (L) ([3]; 75th day): 1,12; serum lipids (LS) ([3]; 75th day): 4,08; total cholesterol (T) ([3]; 75th day): 2,91; fatty infiltrations of the liver [4]: 1,2
CN(C)c1c(-c2ccccc2)sc2ccccc12 [derivative 29, 3-dimethylamino-2-phenyl-benzo(b)thiophene] | 0,12 g/l | 0,50 g/l | 1,1 | 10,7 | 7,8 | 12,7 | 0,46 | 0,27 | 0,28 | 1,95 | 0,58 | 21,00 | 18,4 | 24,9 | 0,60 | 0,89 | 0,59 | 2,83 | 1,48 | 35,1 | Kunkel-Phenol test (K1) ([3]; 75th day): 32,6; Kunkelphenol test (K2) ([3]; 75th day): 41,5; esterification ratio (E/T) ([3]; 75th day): 0,60; esterified cholesterol (E) ([3]; 75th day): 1,75; free cholesterol (L) ([3]; 75th day): 1,15; serum lipids (LS) ([3]; 75th day): 3,95; total cholesterol (T) ([3]; 75th day): 2,90; fatty infiltrations of the liver [4]: 0,8
c1ccc(CNc2c(-c3ccccc3)sc3ccccc23)cc1 [derivative n° 1, 3-benzylamino-2-phenyl-benzo(b)thiophene] | 0,15 g/l | 0,61 g/l | 1,6 | 10,8 | 7,9 | 12,8 | 0,53 | 0,28 | 0,24 | 1,98 | 0,52 | 21,3 | 18,8 | 25,7 | 0,63 | 0,95 | 0,55 | 2,9 | 1,50 | 36,2 | Kunkel-Phenol test (K1) ([3]; 75th day): 33,3; Kunkelphenol test (K2) ([3]; 75th day): 44,2; esterification ratio (E/T) ([3]; 75th day): 0,62; esterified cholesterol (E) ([3]; 75th day): 1,84; free cholesterol (L) ([3]; 75th day): 1,12; serum lipids (LS) ([3]; 75th day): 4,18; total cholesterol (T) ([3]; 75th day): 2,96; fatty infiltrations of the liver [4]: 1,1
CCCCN(C)c1c(-c2ccc(OC)cc2)sc2ccccc12 [derivative 42, 3-(N-butyl,N-methylamino)-2-(4-methoxyphenyl)-benzo(b)thiophene] | 0,12 g/l | 0,54 g/l | 1,5 | 11,2 | 8,1 | 13,7 | 0,50 | 0,26 | 0,25 | 2,05 | 0,51 | 21,2 | 18,9 | 25,5 | 0,62 | 0,90 | 0,55 | 2,91 | 1,45 | 35,4 | Kunkel-Phenol test (K1) ([3]; 75th day): 33,2; Kunkelphenol test (K2) ([3]; 75th day): 45,0; esterification ratio (E/T) ([3]; 75th day): 0,61; esterified cholesterol (E) ([3]; 75th day): 1,85; free cholesterol (L) ([3]; 75th day): 1,09; serum lipids (LS) ([3]; 75th day): 4,05; total cholesterol (T) ([3]; 75th day): 2,94; fatty infiltrations of the liver [4]: 0,9
c1ccc(CN2CCN(c3c(-c4ccccc4)sc4ccccc34)CC2)cc1 [derivative 24, 3-(4-benzylpiperazino)-2-phenyl-benzo(b) thiophene] | 0,14 g/l | 0,56 g/l | 1,4 | 10,8 | 8,2 | 13,0 | 0,50 | 0,28 | 0,27 | 2,00 | 0,55 | 2,1 | 18,8 | 25,3 | 0,65 | 0,98 | 0,52 | 2,87 | 1,50 | 35,2 | Kunkel-Phenol test (K1) ([3]; 75th day): 32,9; Kunkelphenol test (K2) ([3]; 75th day): 48,2; esterification ratio (E/T) ([3]; 75th day): 0,61; esterified cholesterol (E) ([3]; 75th day): 1,80; free cholesterol (L) ([3]; 75th day): 1,11; serum lipids (LS) ([3]; 75th day): 3,98; total cholesterol (T) ([3]; 75th day): 2,91; fatty infiltrations of the liver [4]: 1,00
